In ChEMBL document CHEMBL1133324, “Suitably functionalised pyrimidines as potential antimycotic agents” (2000) one finds MIC data, which are given here for 17 compounds.

Converted amounts (≈) assume the structure as drawn. Bounds are passed on as bounds.

In one assay the test system is Aspergillus fumigatus. Put plainly: In vitro antifungal activity against human pathogenic fungi, Aspergillus fumigatus. The format is functional.
For a further assay, the system named is Candida albicans. Put plainly: In vitro antifungal activity against human pathogenic fungi, Candida albicans. The format is functional.
The next assay concerns Cryptococcus neoformans. Put plainly: In vitro antifungal activity against human pathogenic fungi, Cryptococcus neoformans. The format is functional.
A further assay relates to Sporothrix schenckii. Put plainly: In vitro antifungal activity against human pathogenic fungi, Sporothrix schenck ii. The format is functional.
In the next assay the test system is Trichophyton benhamiae. Description: In vitro antifungal activity against human pathogenic fungi, Trichophyton mentagrophytes. The format is functional, Arthroderma benhamiae.

`COc1ccc(-c2nc(SC)nc(Cl)c2C#N)cc1`: the MIC (usually the lowest concentration that inhibits growth of the organism) against Aspergillus fumigatus is 50 µg/mL (≈ 171 µM); in the assay with Candida albicans, greater than 100 µg/mL; with Cryptococcus neoformans it was greater than 100 µg/mL; against Sporothrix schenckii it was greater than 100 µg/mL; against Trichophyton benhamiae, 50 µg/mL (≈ 171 µM).

On to `CSc1nc(Cl)c(C#N)c(-c2cccc(F)c2)n1`, for which the MIC against Aspergillus fumigatus was 0.09 µg/mL (≈ 0.322 µM); against Candida albicans, greater than 100 µg/mL; with Cryptococcus neoformans, 50 µg/mL (≈ 179 µM); against Sporothrix schenckii, greater than 100 µg/mL; in the assay on Trichophyton benhamiae, 0.09 µg/mL (≈ 0.322 µM).

`CCc1nc(Cl)c(C#N)c(SC)n1`: the MIC with Aspergillus fumigatus was 6.25 µg/mL (≈ 29.2 µM); in the assay on Candida albicans, 25 µg/mL (≈ 117 µM); in the assay on Cryptococcus neoformans, 1.56 µg/mL (≈ 7.3 µM); with Sporothrix schenckii, 12.5 µg/mL (≈ 58.5 µM); in the assay with Trichophyton benhamiae, 1.56 µg/mL (≈ 7.3 µM).

Consider `CSc1nc(Cl)c(C#N)c(SC)n1`, for which the MIC in the assay with Aspergillus fumigatus was 0.002 µg/mL (≈ 0.00863 µM); in the assay on Candida albicans, greater than 100 µg/mL; against Cryptococcus neoformans, 1.56 µg/mL (≈ 6.73 µM); in the assay on Sporothrix schenckii, 50 µg/mL (≈ 216 µM); against Trichophyton benhamiae, 0.005 µg/mL (≈ 0.0216 µM).

For `CCSc1nc(Cl)c(C#N)c(-c2cccc(F)c2)n1`, the MIC was 1.56 µg/mL (≈ 5.31 µM) in the assay on Aspergillus fumigatus; greater than 100 µg/mL in the assay with Candida albicans; 3.12 µg/mL (≈ 10.6 µM) in the assay on Cryptococcus neoformans; 50 µg/mL (≈ 170 µM) with Sporothrix schenckii; 0.39 µg/mL (≈ 1.33 µM) against Trichophyton benhamiae.

Consider `CC(=O)N1CCN(c2ccc(OC[C@H]3CO[C@](Cn4ccnc4)(c4ccc(Cl)cc4Cl)O3)cc2)CC1` [KETOCONAZOLE], for which the minimal inhibitory concentration (MIC) stood at 0.7 µg/mL (≈ 1.32 µM) against Aspergillus fumigatus; 0.3 µg/mL (≈ 0.565 µM) against Candida albicans; 0.1 µg/mL (≈ 0.188 µM) against Cryptococcus neoformans; 25 µg/mL (≈ 47 µM) with Sporothrix schenckii; 0.1 µg/mL (≈ 0.188 µM) in the assay with Trichophyton benhamiae.

Consider `CSc1nc(S)c(C#N)c(-c2cccc(F)c2)n1`, for which the MIC against Aspergillus fumigatus, in the assay on Candida albicans, against Cryptococcus neoformans, against Sporothrix schenckii and in the assay with Trichophyton benhamiae was greater than 100 µg/mL each time.

In the case of `CSc1nc(Cl)c(C#N)c(-c2ccc(F)cc2)n1`, the MIC with Aspergillus fumigatus was 0.04 µg/mL (≈ 0.143 µM); in the assay with Candida albicans, greater than 100 µg/mL; against Cryptococcus neoformans it was 50 µg/mL (≈ 179 µM); with Sporothrix schenckii, greater than 100 µg/mL; in the assay on Trichophyton benhamiae, 0.09 µg/mL (≈ 0.322 µM).

Take `CSc1nc(Nc2ccc(Cl)cc2)c(C#N)c(-c2cccc(F)c2)n1`: the MIC in the assay on Aspergillus fumigatus, against Candida albicans, with Cryptococcus neoformans, in the assay with Sporothrix schenckii and in the assay on Trichophyton benhamiae was greater than 100 µg/mL throughout.

Consider `COc1ccc(-c2nc(SC)nc(Nc3ccc(Cl)cc3)c2C#N)cc1`, for which the minimal inhibitory concentration (MIC) against Aspergillus fumigatus, with Candida albicans, against Cryptococcus neoformans, against Sporothrix schenckii and in the assay with Trichophyton benhamiae was greater than 100 µg/mL throughout.

On to `CSc1nc(Cl)c(C#N)c(-c2cccc(Cl)c2)n1`, for which the minimum inhibitory concentration (MIC) against Aspergillus fumigatus was 0.09 µg/mL (≈ 0.304 µM); against Candida albicans, greater than 100 µg/mL; in the assay with Cryptococcus neoformans it was 1.56 µg/mL (≈ 5.27 µM); with Sporothrix schenckii, greater than 100 µg/mL; against Trichophyton benhamiae it was 0.39 µg/mL (≈ 1.32 µM).

Consider `CSc1nc(Nc2ccc(Cl)cc2)c(C#N)c(-c2ccc(F)cc2)n1`, for which the MIC against Aspergillus fumigatus, with Candida albicans, with Cryptococcus neoformans, against Sporothrix schenckii and in the assay on Trichophyton benhamiae was greater than 100 µg/mL in each case.

For the compound `CSc1ncnc(Cl)c1C#N`, the minimal inhibitory concentration (MIC) in the assay with Aspergillus fumigatus amounted to 0.39 µg/mL (≈ 2.1 µM); in the assay with Candida albicans it was 25 µg/mL (≈ 135 µM); in the assay with Cryptococcus neoformans it was 1.56 µg/mL (≈ 8.4 µM); in the assay with Sporothrix schenckii, 6.25 µg/mL (≈ 33.7 µM); against Trichophyton benhamiae it was 0.39 µg/mL (≈ 2.1 µM).

In the case of `CSc1nc(SCc2ccccc2)nc(Cl)c1C#N`, the minimum inhibitory concentration (MIC) in the assay on Aspergillus fumigatus came out at 0.78 µg/mL (≈ 2.53 µM); in the assay on Candida albicans, 50 µg/mL (≈ 162 µM); against Cryptococcus neoformans it was 6.25 µg/mL (≈ 20.3 µM); in the assay with Sporothrix schenckii, 50 µg/mL (≈ 162 µM); against Trichophyton benhamiae it was 0.19 µg/mL (≈ 0.617 µM).

For `C[C@@H]1[C@H](O)[C@@H](C)/C=C/C=C/C=C/C=C/C=C/C=C/C=C/[C@H](O[C@@H]2O[C@H](C)[C@@H](O)[C@H](N)[C@@H]2O)C[C@@H]2O[C@](O)(C[C@@H](O)C[C@@H](O)[C@H](O)CC[C@@H](O)C[C@@H](O)CC(=O)O[C@H]1C)C[C@H](O)[C@H]2C(=O)O` [AMPHOTERICIN B], the MIC in the assay on Aspergillus fumigatus is 0.002 µg/mL (≈ 0.00216 µM); against Trichophyton benhamiae, 0.005 µg/mL (≈ 0.00541 µM).

Consider `CSc1nc(Cl)c(C#N)c(-c2ccc(Cl)cc2)n1`, for which the minimum inhibitory concentration (MIC) with Aspergillus fumigatus is 0.04 µg/mL (≈ 0.135 µM); against Candida albicans it was greater than 100 µg/mL; in the assay with Cryptococcus neoformans it was greater than 100 µg/mL; against Sporothrix schenckii, greater than 100 µg/mL; against Trichophyton benhamiae it was 0.19 µg/mL (≈ 0.641 µM).

In the case of `CSc1nc(-c2ccccc2)nc(Cl)c1C#N`, the minimal inhibitory concentration (MIC) against Aspergillus fumigatus was 0.02 µg/mL (≈ 0.0764 µM); in the assay on Candida albicans, greater than 100 µg/mL; in the assay on Cryptococcus neoformans it was greater than 100 µg/mL; in the assay on Sporothrix schenckii it was greater than 100 µg/mL; in the assay on Trichophyton benhamiae it was 12.5 µg/mL (≈ 47.8 µM).
